This is an account of results in PubChem BioAssay AID1996.

SMILES strings stand for the structures. Values after ≈ are worked out from the molar mass of the structure shown.

The conditions of the data set: buffer; pH 7.4; 200.0 µM.
Broadly, the kinetic solubility is the concentration staying in solution when a stock, usually in DMSO, is diluted into the medium. In turn, `Cl.O=S(=O)(NCCN1CCN(S(=O)(=O)c2ccccc2F)CC1)c1ccccc1F` showed a solubility (kinetic) of over 72.3 µg/mL.
`Fc1ccc(F)c(NC2=NCCCCC2)c1`: the kinetic solubility is over 33.6 µg/mL.
`CC(C)(C)c1nc(SCC(=O)NC2CCCC2)c2ccccc2n1` gave a solubility (kinetic) of 0.6 µg/mL (≈ 1.75 µM).
Turning to `NC(=O)NC(CC(=O)NCCc1ccccn1)c1ccccc1Cl` (stereo unspecified), the kinetic solubility was over 52 µg/mL.
To `Cn1c(N2CCOCC2)cc(=O)n(C)c1=O` belongs 29.3 µg/mL (≈ 130 µM); to `Cc1cc(C)n(/C(=C\N(C)C)C(=O)c2cccc([N+](=O)[O-])c2)n1`, over 47.2 µg/mL; to `CC(CCc1ccccc1)NC(=O)c1cnc(Cl)c(Cl)c1` (stereo unspecified), 5.5 µg/mL (≈ 17 µM).
For `COc1ccc(S(=O)(=O)N2CC(=O)Nc3ccccc32)cc1` the value was over 47.8 µg/mL; for `CNc1nc(N)c([N+](=O)[O-])c(NCC2CCCO2)n1` (stereo unspecified), over 40.2 µg/mL; for `NC1=NC(c2ccc(Cl)cc2)C(C(=O)c2ccccc2)N1` (stereo unspecified), 4.9 µg/mL (≈ 16.3 µM).
For `COc1ccc(N2CCC(CNC(=O)Nc3ccccc3)C2)cc1` (stereo unspecified) the value was 14.8 µg/mL (≈ 45.5 µM); for `CC1CC(C)CN(C(=O)COC(=O)CN2C(=O)c3ccccc3C2=O)C1` (stereo unspecified), over 53.8 µg/mL.
Compound `O=C(NCc1cccc(C(F)(F)F)c1)c1ccc2c(c1)OCO2` registered a kinetic solubility of 34.8 µg/mL (≈ 108 µM).
Consider `COc1ccc(C(=O)CCC(=O)NC2=NCCS2)cc1`, for which the solubility (kinetic) is 14.6 µg/mL (≈ 49.9 µM).
To `COC(=O)c1ccccc1NC(=O)CNC(=O)c1ccc(OC)cc1` belongs 45 µg/mL (≈ 131 µM).
To `CC1(C)CC(NS(=O)(=O)c2ccc(F)cc2)CC(C)(C)N1` belongs 47.1 µg/mL (≈ 150 µM).
Turning to `O=C(OCCCOC(=O)c1cc[n+]([O-])cc1)c1cc[n+]([O-])cc1`, the kinetic solubility is over 47.7 µg/mL.
For `CCC12CN3CCN(CC(C3)/C1=N\NC(=O)c1ccc(Cl)cc1)C2` the value was over 52 µg/mL; for `O=C1NCCCC1C(=O)N1CCCCC1` (stereo unspecified), over 31.5 µg/mL; for `COc1ccc(C(=O)CC(=O)C(=O)Nc2ccccc2OC)cc1`, 16.2 µg/mL (≈ 49.5 µM).
For `COc1ccc(-n2c(C)cc(=O)[nH]c2=O)cc1` the value was over 34.8 µg/mL; for `Cc1ccc(S(=O)(=O)N2CCCCC2)cc1NC(=O)CSc1nnc(C2CC2)n1C`, over 67.4 µg/mL; for `COc1ccccc1-c1noc(CCCC(=O)N2CCOCC2)n1`, over 49.7 µg/mL.
To `CS(=O)(=O)c1ccc([C@@H](O)[C@@H](CO)NC(=O)C(Cl)Cl)cc1` belongs over 53.4 µg/mL; to `CN(C)c1cc[n+](CC(=O)c2ccc(Br)cc2)cc1.[Cl-]`, 52.8 µg/mL.
Turning to `COc1ccc2nc(C)cc(N3CCC(C(N)=O)CC3)c2c1`, the kinetic solubility amounted to 42.3 µg/mL (≈ 141 µM). This solubility kinetic and that of the compound before are within 1.5-fold of each other.
To `CC1CCN(C2CCN(C(=O)c3ccccc3F)CC2)CC1` belongs 34.7 µg/mL (≈ 114 µM); to `O=S(=O)(Nc1cc(S(=O)(=O)N2CCOCC2)ccc1Cl)c1ccccc1`, over 62.5 µg/mL; to `OCC1(CO)COC(CCc2ccccc2)=N1`, over 35.3 µg/mL.
The compound `CCCN1CNC(=S)N(c2ccc(C)cc2C)C1` displayed a solubility (kinetic) of over 39.5 µg/mL.
For `COc1ccc(S(=O)(=O)N2CCOCC2)cc1NS(=O)(=O)c1ccc(F)c(F)c1` the value was over 67.3 µg/mL.
For `Cn1c(=O)n(CC(=O)O)c(=O)c2c1nc1n2CCCN1Cc1ccccc1` the value was 51.3 µg/mL (≈ 139 µM); for `C=CCNC(=O)C1CCN(S(=O)(=O)c2cccs2)CC1`, over 47.2 µg/mL; for `CCC(C)NC(=O)COC(=O)c1ccc(Cl)cc1O` (stereo unspecified), 4.7 µg/mL (≈ 16.4 µM).
To `CCSc1nsc(NC(=O)Nc2cccc(OC)c2)n1` belongs 1.7 µg/mL (≈ 5.48 µM); to `Cc1cc(=O)[nH]c(NCc2ccccc2)n1`, 30.6 µg/mL (≈ 142 µM).
The compound `O=C(Nc1ccc(N2CCCCC2)cc1)c1ccc2ccccc2n1` showed a solubility (kinetic) of under 0.2 µg/mL.
To `Cc1ccc(S(=O)(=O)NCCN2CCNC2=O)cc1` belongs 38.5 µg/mL (≈ 136 µM).
To `Nc1ccc(C(=O)Nc2cccc3ncccc23)cc1` belongs 37.3 µg/mL (≈ 142 µM); to `Cc1ccc2nc(C)c3c(c2c1)N(c1ccccc1)CC3`, over 41.2 µg/mL.
In the case of `O=S(=O)(NCc1ccco1)c1ccc2ccccc2c1`, the kinetic solubility amounted to 11.3 µg/mL (≈ 39.3 µM).
The compound `CCN1C(=O)CSC1=Nc1ccc(OC)cc1` came in with a solubility (kinetic) of 33.4 µg/mL (≈ 133 µM).
To `CCNC(=S)N1CCN(Cc2ccc3c(c2)OCO3)CC1` belongs over 46.1 µg/mL; to `CCn1cc(CCCC(=O)NCc2ccc(OC)cc2)c2ccccc21`, 10.5 µg/mL (≈ 30 µM); to `O=C(Nc1nc2ccccc2c(=O)s1)c1ccc(F)cc1Cl`, 0.9 µg/mL (≈ 2.69 µM).
To `CCOc1ccc(-c2cn(-c3ccccc3OC)c(=S)[nH]2)cc1` belongs 17.7 µg/mL (≈ 54.2 µM); to `O=C(N/N=C/c1ccccn1)C(O)c1ccccc1` (stereo unspecified), over 38.3 µg/mL.
To `O=C(COc1ccccc1)NCC(=O)NC1CCCCC1` belongs over 43.6 µg/mL; to `C=CCn1c(SCC(=O)NCC2CCCO2)nc2sc(CC)cc2c1=O` (stereo unspecified), over 59 µg/mL.
Compound `CCOc1ccc(C2NC(=O)CCC2[N+](=O)[O-])cc1` (stereo unspecified) returned a kinetic solubility of over 39.6 µg/mL.
In turn, `O=C(Nc1nc2ccccc2s1)c1ccc(F)cc1` came in with a kinetic solubility of 0.6 µg/mL (≈ 2.2 µM).
